Reference: patent US8575382B2, “Low molecular weight pharmacological activity modulators” (“Ivy Pharm” LLC, priority 2009, dated 2013)
Like-named read-outs stand apart in the source and are kept apart here.

Key:
[1] = tested on: A431 line human epidermoid carcinoma cells; assay: Proliferative activity and death of A431 cells (cell count, propidium iodide flow cytofluorimetry); type: cell-based
[2] = tested on: A431 line human epidermoid carcinoma cells; assay: as above; type: cell-based; details: for Proportion of dead cells / Total cells: A431; for effect on the proliferative activity of A431 cells (in words): summary of Table 2
Experimental: The number of living and dead cells in a culture was determined after 24 and 48 hours.
A431 line human epidermoid carcinoma cells, obtained from the All-Russian Cell Culture Collection (Russian Academy of Sciences Institute of Cytology, St. Petersburg).
Cells are cultured in a CO2 incubator (New Brunswick Scientific) at +37° C. and with a CO2 content of 5%. Cells are grown in these conditions to a monolayer culture and are exposed to the action of the test compounds.
The DMEM medium (OOO PanEko, Moscow) with the addition of gentamicin K (80 mg/l), L-glutamine (300 mg/l) and fetal serum (PAA, Austria) to a final concentration of 10%, is used for culturing cells. Cells are transferred to a medium with a reduced serum content of 0.5% 24 hours before commencing an experiment.
The cells were then suspended by pipetting with an automatic pipette and were combined with the previously collected medium. Samples were centrifuged at room temperature for 5 min at 400 g, the supernatant was removed and the deposit was resuspended in pH 7.4 PBS phosphate-salt buffer.
Propidium iodide was added to a suspension of cells to a concentration of 50 μg/ml 5-10 min before measuring in a Bruker ACR 1000 flow cytofluorimeter. This stain is able to penetrate through a damaged cell membrane, and stained cells are dead.

[3] = tested on: myocardium (30-minute LCA occlusion, 90-minute reperfusion)
Experimental: The experiments were performed on male Wistar rats weighing 200-300 g (RAMN Rappolovo Breeding Centre, St. Petersburg) and male C57B mice weighing 25-30 g (B&K, Sollentuna, Sweden). The animals were maintained in a 12/12-hour light regime and received standard feed and drinking water ad libitum. All the experiments were conducted in accordance with the “Handbook on the care and use of laboratory animals” (USA National Institute of Health publication No. 85-23) and “Handbook on the experimental (preclinical) study of new pharmacological substances”.
Initial anesthesia of rats was performed by intraperitoneal administration of etaminal sodium (Nembutal) in a single dose of 7 mg/100 g. The experiments were performed with artificial ventilation of the lungs AVL) via a tracheotomy (respiration rate—60/min, respiratory volume—3 ml/100 g of body weight). AVL was carried out with room air using a Vita-1 unit (PO Krasnogvardeyets, St. Petersburg). A breathing valve for small laboratory animals was used, allowing the dead space volume of the apparatus to be reduced and limiting accumulation of carbon dioxide in the flow system of the apparatus. Arterial pressure (AP) was measured during the experiment using a miniature pressure sensor (Baxter, USA) via a heparinized catheter inserted into the left common carotid artery. A median skin incision was made in the neck, with subsequent blunt separation of the tissues with forceps, for access to the trachea and carotid artery. An electrocardiogram (ECG) was recorded in the course of the experiment (Kardiotekhnika-EKG-8, ZAO Inkart, St. Petersburg) with standard leads, using subcutaneous needle electrodes 2 mm in diameter and 25 mm long. At the start of the experiment, the left femoral vein was catheterized for intravenous infusion of Nembutal with the object of maintaining anesthesia and also for the administration of test preparations and, at the end of the experiment, Evans blue.
A previously described method was used to model ischemia-reperfusion of the myocardium. The heart was accessed via a thoracotomy in the fourth intercostal on the left. An L-shaped skin incision was made first, then the large and small pectoral muscles were separated layer by layer with an electrocoagulator, after which the intercostal muscles were separated and the pleura was exposed. The pericardium was then opened by a blunt method and, using the medial edge of the auricula of the left atrium on the left, and the cone of the pulmonary artery on the right, for guidance the location of the common trunk of the LCA was determined, and a polypropylene ligature for this was placed with the aid of an atraumatic needle (6-O, Cardiopoint, CV-301). Removal of the heart from the wound was avoided since, apart from causing mechanical trauma to the heart, such a manipulation inevitably leads to serious disturbances to the hemodynamics.
An occluder was formed in order to create reversible ischemia of the myocardium: the ends of the ligature surrounding the coronary artery were led into the interior of a polyethylene tube 1 mm in diameter and 5-6 cm long (PE 40), after which occlusion of the left coronary artery (LCA) was achieved by moving the tube towards the heart, and reperfusion by moving it in the opposite direction. A clamp was applied to the tube with the object of maintaining occlusion for 30 minutes. The animals were located on a thermostatted operating table during the experiment; during this time, the body temperature of the animal was maintained in the range 37.5±0.5° C.
30-minute occlusion of the LCA with subsequent 90-minute reperfusion was used to create irreversible ischemic-reperfusion damage to the myocardium, which is a test for assessing cardioprotective effects.

[4] = Solubility of the crystalline coordination compound; type: physicochemical
Experimental: [drawing 10] […] (1.811 mmole) of AgNO3, dissolved in the minimum amount of water, are added to a suspension of 300 mg (0.904 mmole) of Pd(2,2′-dipy)Cl2 in 15 ml of water. The mixture is acidified with 0.5 ml of concentrated HNO3, homogenized in an ultrasound bath for 15 min and filtered. […] (0.905 mmole) of L-cysteine (cys), dissolved in the minimum amount of water, are added to the filtrate. The reaction mixture is evaporated in air at room temperature. […] Yield 70-75%.

[5] = AG1478 0.75 μg/ml 15 min before EGF 200 ng/ml, 24 hours
[6] = AG1478 0.75 μg/ml 15 min before EGF 200 ng/ml, 48 hours
[7] = AG1478 1.0 μg/ml 15 min before EGF 200 ng/ml, 24 hours
[8] = AG1478 1.0 μg/ml 15 min before EGF 200 ng/ml, 48 hours
[9] = AG1478 2.5 μg/ml 15 min before EGF 200 ng/ml, 24 hours
[10] = AG1478 2.5 μg/ml 15 min before EGF 200 ng/ml, 48 hours
[11] = AG1478 5.0 μg/ml 15 min before EGF 200 ng/ml, 24 hours
[12] = AG1478 5.0 μg/ml 15 min before EGF 200 ng/ml, 48 hours
[13] = Table 2, age of culture 0 hours, cysteine […], C—Pd […], C—Pd:C […], EGF 200 ng/ml
[14] = Table 2, age of culture 24 hours, cysteine […], C—Pd […], C—Pd:C […], EGF 200 ng/ml
[15] = Table 2, age of culture 48 hours, cysteine […], C—Pd […], C—Pd:C […], EGF 200 ng/ml

COc1cc2ncnc(Nc3cccc(Cl)c3)c2cc1OC [AG1478, tyrphostin AG 1478]
Total cells ([1]; AG1478 0.75 μg/ml 15 min before EGF 200 ng/ml, 0 hours): 10000 mL⁻¹ | Proportion of dead cells [2, 5]: 20% | Total cells [2, 5]: 48100 mL⁻¹ | Proportion of dead cells [2, 6]: 25% | Total cells [2, 6]: 70800 mL⁻¹ | Total cells ([2]; AG1478 1.0 μg/ml 15 min before EGF 200 ng/ml, 0 hours): 10000 mL⁻¹ | Proportion of dead cells [2, 7]: 23% | Total cells [2, 7]: 47100 mL⁻¹ | Proportion of dead cells [2, 8]: 23% | Total cells [2, 8]: 65700 mL⁻¹ | Total cells ([2]; AG1478 2.5 μg/ml 15 min before EGF 200 ng/ml, 0 hours): 10000 mL⁻¹ | Proportion of dead cells [2, 9]: 27% | Total cells [2, 9]: 39400 mL⁻¹ | Proportion of dead cells [2, 10]: 30% | Total cells [2, 10]: 61100 mL⁻¹ | Total cells ([2]; AG1478 5.0 μg/ml 15 min before EGF 200 ng/ml, 0 hours): 10000 mL⁻¹ | Proportion of dead cells [2, 11]: 29% | Total cells [2, 11]: 6400 mL⁻¹ | Proportion of dead cells [2, 12]: 41% | Total cells [2, 12]: 2100 mL⁻¹

N[C@@H](CS)C(=O)O [Cysteine, cysteine]
Total cells [1, 13]: 10000 mL⁻¹ | Proportion of dead cells [2, 14]: 11% | Total cells [2, 14]: 14700 mL⁻¹ | Proportion of dead cells [2, 15]: 22% | Total cells [2, 15]: 23500 mL⁻¹ | effect on the proliferative activity of A431 cells (in words) [2]: no effect on stimulation of proliferative activity

Nc1ncnc2c1ncn2[C@@H]1O[C@H](CO)[C@@H](O)[C@H]1O [adenosine]
disturbances of the heart rhythm or stopping of the heart ([3]; rat, in vivo): No disturbances of the heart rhythm or stopping of the heart | size of the infarct zone, % of the size of the anatomical risk zone ([3]; rats, adenosine 0.1 μmol/kg i.v. infusion 30 minutes before coronary occlusion (group 1)): 64.7±3.47% | size of the infarct zone, % of the size of the anatomical risk zone ([3]; rats, adenosine 0.25 μmol/kg i.v. 30 minutes before occlusion (group 2)): 63.1±4.31% | size of the infarct zone, % of the size of the anatomical risk zone ([3]; rats, adenosine 0.5 μmol/kg i.v. 30 minutes before occlusion (group 3)): 62.7±4.11% | size of the infarct zone, % of the size of the anatomical risk zone ([3]; rats, adenosine 1.0 μmol/kg i.v. 30 minutes before occlusion (group 4)): 65.1±4.84% | size of the infarct zone, % of the size of the anatomical risk zone ([3]; rats, adenosine 2.5 μmol/kg i.v. 30 minutes before occlusion (group 5)): 60.9±5.10% | size of the infarct zone, % of the size of the anatomical risk zone ([3]; rats, adenosine 5.0 μmol/kg i.v. 30 minutes before occlusion (group 6)): 35.9±3.59% | size of the infarct zone, % of the size of the anatomical risk zone ([3]; rats, adenosine 10.0 μmol/kg i.v. 30 minutes before occlusion (group 7)): 32.7±3.21% | size of the infarct zone, % of the size of the anatomical risk zone ([3]; rats, adenosine 25.0 μmol/kg i.v. 30 minutes before occlusion (group 8)): 28.2±3.43% | size of the infarct zone, % of the size of the anatomical risk zone ([3]; rats, adenosine 50.0 μmol/kg i.v. 30 minutes before occlusion (group 9)): 26.5±2.87% | reduction of the size of the infarct zone compared with the control, factor ([3]; rats, adenosine groups 6-9 (5.0-50.0 μmol/kg), control 63.8±3.32%): 1.5-2.5

[Pd2(μ-S-L-Cys)(μ-S-L-CysH)(2,2′-dipy)2](NO3)3.4.5H2O [C—Pd]
Total cells [1, 13]: 10000 mL⁻¹ | solubility ([4]; in acetone): virtually insoluble | solubility ([4]; in dichloromethane): virtually insoluble | solubility ([4]; in ethanol): less soluble | solubility ([4]; in water): readily soluble | Proportion of dead cells [2, 14]: 8% | Total cells [2, 14]: 32300 mL⁻¹ | Proportion of dead cells [2, 15]: 12% | Total cells [2, 15]: 36100 mL⁻¹ | effect on the proliferative activity of A431 cells (in words) [2]: stimulates the proliferative activity
